Patent US20150031765A1, “TREATMENT OF COGNITIVE IMPAIRMENT” (priority 2011, published 2015)
Where a name gives a salt, the structure may show the parent alone.

Columns and labels:
[1] = system: memory dysfunction of scopolamine-treated rats; conditions: Morris water maze test; cited from earlier work
[2] = system: scopolamine induced learning and memory deficit; assay: Morris water maze test, scopolamine induced learning and memory deficit in rats; type: in vivo, Sprague-Dawley male rats; conditions: for average time to locate the submerged platform: Day 1 of acquisition trials, whole group
Experimental: The Morris water maze test is a classical cognitive test for evaluation of spatial learning and memory in rodents. […] 60 Sprague-Dawley male rats were used in the present study. The animals were housed in cages in groups of four rats per cage. All rats were fed with food and water ad libitum. The testing apparatus can be described as follows. A circular pool was filled with water (24±1° C.) to the depth of 30 cm. […] Four start positions were at the perimeter of the pool: the first one in the first quadrant, the second one in the second quadrant, the third one in the third quadrant and the last one in the fourth quadrant. The rats were trained to escape from water by swimming to a hidden platform whose location was only identified using visual cues attached to the curtain around the pool. Visual cues had different colors and dimensions and were kept constant during the whole experiment. All rats were trained in the swimming pool for 60 seconds without the platform. […] The training procedure included 4 trials per day with 4 different and randomized starting positions. In each trial, the time of rat to reach the platform (escape latency) was recorded, and then the rat was allowed to stay on the platform for 15 seconds. […] The experimental group setting is described in Table 3. […] For practical reasons, the study was divided into two sessions (Table 4). Each session included 6 groups, and each group included 5 rats. Each session took 10 days to complete. […] On day 6, each rat was placed in the swimming pool with no platform to locate the platform site for 60 seconds. […] Any Maze software was used for video tracking and data collection during the whole acquisition trial and probe trial. In acquisition trial, escape latency was recorded. In probe trial, time spent in target and swimming speed was recorded. Data were analyzed and graphed by Graph Pad Prism 5.

[3] = Day 1, session 1, 250 mg/kg po + scopolamine 0.5 mg/kg ip
[4] = Day 1, session 2, 250 mg/kg po + scopolamine 0.5 mg/kg ip
[5] = Day 2, session 1, 250 mg/kg po + scopolamine 0.5 mg/kg ip
[6] = Day 2, session 2, 250 mg/kg po + scopolamine 0.5 mg/kg ip
[7] = Day 3, session 1, 250 mg/kg po + scopolamine 0.5 mg/kg ip
[8] = Day 3, session 2, 250 mg/kg po + scopolamine 0.5 mg/kg ip
[9] = Day 4, session 1, 250 mg/kg po + scopolamine 0.5 mg/kg ip
[10] = Day 4, session 2, 250 mg/kg po + scopolamine 0.5 mg/kg ip
[11] = Day 5, session 1, 250 mg/kg po + scopolamine 0.5 mg/kg ip
[12] = Day 5, session 2, 250 mg/kg po + scopolamine 0.5 mg/kg ip
[13] = Day 6, session 1, 250 mg/kg po + scopolamine 0.5 mg/kg ip on days 1-5
[14] = Day 6, session 2, 250 mg/kg po + scopolamine 0.5 mg/kg ip on days 1-5, in s

C=C1C[C@@]23CC[C@H]4[C@@](C)(CCC[C@@]4(C)C(=O)O[C@@H]4O[C@H](CO)[C@@H](O)[C@H](O)[C@H]4O)[C@@H]2CC[C@]1(O[C@@H]1O[C@H](CO)[C@@H](O)[C@H](O)[C@H]1O[C@@H]1O[C@H](CO)[C@@H](O)[C@H](O)[C@H]1O)C3 [Stevioside]
effect in cognitive deficits of rats (in words) [1]: memory-preservative effect | effect on learning and memory deficit induced by scopolamine, probe trials (in words) ([2]; 250 mg/kg): significantly reversed | Latency to escape in acquisition trial [2, 3]: 44.98 ± 5.53 s | Latency to escape in acquisition trial [2, 4]: 46.48 ± 3.66 s | average time to locate the submerged platform ([2]; 250 mg/kg po + scopolamine): 45.73 ± 3.14 s | Latency to escape in acquisition trial [2, 5]: 45.78 ± 6.95 s | Latency to escape in acquisition trial [2, 6]: 40.44 ± 3.63 s | Latency to escape in acquisition trial [2, 7]: 44.80 ± 5.46 s | Latency to escape in acquisition trial [2, 8]: 39.46 ± 9.62 s | Latency to escape in acquisition trial [2, 9]: 41.74 ± 6.39 s | Latency to escape in acquisition trial [2, 10]: 35.78 ± 4.95 s | Latency to escape in acquisition trial [2, 11]: 30.86 ± 6.57 s | Latency to escape in acquisition trial [2, 12]: 31.08 ± 3.33 s | Time spent in target quadrant in probe trial [2, 13]: 20.78 ± 3.75 s | Time spent in target quadrant in probe trial [2, 14]: 21.10 ± 2.16

C[C@@]12CC[C@@H]3[C@@](CC[C@H]4[C@@]3(C)CCC[C@@]4(C)C(=O)O)(CC1=O)C2 (single isomer, unassigned; ent-16) [Isosteviol, ent-16-ketobeyeran-19-oic acid]
effect on learning and memory deficit induced by scopolamine, probe trials (in words) ([2]; 80 mg/kg): significantly attenuated | effect on learning and memory deficit induced by scopolamine, probe trials (in words) ([2]; 250 mg/kg): not | Latency to escape in acquisition trial ([2]; Day 1, session 1, 80 mg/kg po + scopolamine 0.5 mg/kg ip): 46.46 ± 4.50 s | Latency to escape in acquisition trial [2, 3]: 46.16 ± 2.48 s | Latency to escape in acquisition trial ([2]; Day 1, session 2, 80 mg/kg po + scopolamine 0.5 mg/kg ip): 45.20 ± 6.40 s | Latency to escape in acquisition trial [2, 4]: 48.46 ± 4.49 s | average time to locate the submerged platform ([2]; 80 mg/kg po + scopolamine): 45.83 ± 3.70 s | average time to locate the submerged platform ([2]; 250 mg/kg po + scopolamine): 47.31 ± 2.45 s | Latency to escape in acquisition trial ([2]; Day 2, session 1, 80 mg/kg po + scopolamine 0.5 mg/kg ip): 45.24 ± 7.87 s | Latency to escape in acquisition trial [2, 5]: 43.94 ± 5.18 s | Latency to escape in acquisition trial ([2]; Day 2, session 2, 80 mg/kg po + scopolamine 0.5 mg/kg ip): 41.88 ± 3.19 s | Latency to escape in acquisition trial [2, 6]: 50.76 ± 3.90 s | Latency to escape in acquisition trial ([2]; Day 3, session 1, 80 mg/kg po + scopolamine 0.5 mg/kg ip): 40.42 ± 5.48 s | Latency to escape in acquisition trial [2, 7]: 48.62 ± 5.64 s | Latency to escape in acquisition trial ([2]; Day 3, session 2, 80 mg/kg po + scopolamine 0.5 mg/kg ip): 36.04 ± 5.50 s | Latency to escape in acquisition trial [2, 8]: 40.42 ± 4.57 s | Latency to escape in acquisition trial ([2]; Day 4, session 1, 80 mg/kg po + scopolamine 0.5 mg/kg ip): 37.84 ± 4.36 s | Latency to escape in acquisition trial [2, 9]: 44.36 ± 6.54 s | Latency to escape in acquisition trial ([2]; Day 4, session 2, 80 mg/kg po + scopolamine 0.5 mg/kg ip): 38.74 ± 5.25 s | Latency to escape in acquisition trial [2, 10]: 41.58 ± 6.33 s | Latency to escape in acquisition trial ([2]; Day 5, session 1, 80 mg/kg po + scopolamine 0.5 mg/kg ip): 27.14 ± 4.30 s | Latency to escape in acquisition trial [2, 11]: 41.44 ± 7.24 s | Latency to escape in acquisition trial ([2]; Day 5, session 2, 80 mg/kg po + scopolamine 0.5 mg/kg ip): 33.38 ± 6.04 s | Latency to escape in acquisition trial [2, 12]: 35.24 ± 7.74 s | Time spent in target quadrant in probe trial ([2]; Day 6, session 1, 80 mg/kg po + scopolamine 0.5 mg/kg ip on days 1-5): 19.80 ± 1.19 s | Time spent in target quadrant in probe trial [2, 13]: 16.00 ± 2.37 s | Time spent in target quadrant in probe trial ([2]; Day 6, session 2, 80 mg/kg po + scopolamine 0.5 mg/kg ip on days 1-5, in s): 17.28 ± 1.11 | Time spent in target quadrant in probe trial [2, 14]: 16.50 ± 1.61 | visible behavioral abnormalities ([2]; Morris water maze study): no visible behavioral abnormalities

COc1cc2c(cc1OC)C(=O)C(CC1CCN(Cc3ccccc3)CC1)C2 (stereo not drawn) [Donepezil, Donepezil hydrochloride]
effect on learning and memory deficit induced by scopolamine, probe trials (in words) ([2]; 0.1 mg/kg, vs scopolamine only group): significantly attenuated | Latency to escape in acquisition trial ([2]; Day 1, session 1, 0.1 mg/kg ip + scopolamine 0.5 mg/kg ip): 48.52 ± 5.50 s | Latency to escape in acquisition trial ([2]; Day 1, session 2, 0.1 mg/kg ip + scopolamine 0.5 mg/kg ip): 45.44 ± 5.40 s | average time to locate the submerged platform ([2]; 0.1 mg/kg ip + scopolamine): 46.98 ± 3.67 s | Latency to escape in acquisition trial ([2]; Day 2, session 1, 0.1 mg/kg ip + scopolamine 0.5 mg/kg ip): 44.50 ± 2.48 s | Latency to escape in acquisition trial ([2]; Day 2, session 2, 0.1 mg/kg ip + scopolamine 0.5 mg/kg ip): 43.18 ± 7.85 s | Latency to escape in acquisition trial ([2]; Day 3, session 1, 0.1 mg/kg ip + scopolamine 0.5 mg/kg ip): 35.92 ± 8.22 s | Latency to escape in acquisition trial ([2]; Day 3, session 2, 0.1 mg/kg ip + scopolamine 0.5 mg/kg ip): 37.06 ± 4.26 s | Latency to escape in acquisition trial ([2]; Day 4, session 1, 0.1 mg/kg ip + scopolamine 0.5 mg/kg ip): 36.04 ± 4.78 s | Latency to escape in acquisition trial ([2]; Day 4, session 2, 0.1 mg/kg ip + scopolamine 0.5 mg/kg ip): 34.20 ± 6.89 s | Latency to escape in acquisition trial ([2]; Day 5, session 1, 0.1 mg/kg ip + scopolamine 0.5 mg/kg ip): 26.86 ± 3.09 s | Latency to escape in acquisition trial ([2]; Day 5, session 2, 0.1 mg/kg ip + scopolamine 0.5 mg/kg ip): 30.50 ± 5.78 s | Time spent in target quadrant in probe trial ([2]; Day 6, session 1, 0.1 mg/kg ip + scopolamine 0.5 mg/kg ip on days 1-5): 18.84 ± 3.22 s | Time spent in target quadrant in probe trial ([2]; Day 6, session 2, 0.1 mg/kg ip + scopolamine 0.5 mg/kg ip on days 1-5, in s): 19.40 ± 1.09

CN1[C@@H]2C[C@@H](OC(=O)[C@H](CO)c3ccccc3)C[C@H]1[C@@H]1O[C@@H]12 [Scopolamine]
average time to locate the submerged platform ([2]; scopolamine 0.5 mg/kg ip alone): 46.11 ± 2.98 s | latency to the submerged platform in acquisition trials (effect in words) ([2]; Day 5, scopolamine 0.5 mg/kg): significantly increased | Time spent in target quadrant in probe trial ([2]; Day 6, session 1, scopolamine 0.5 mg/kg ip alone (0.5% MC po) on days 1-5): 15.70 ± 1.42 s | Time spent in target quadrant in probe trial ([2]; Day 6, session 2, scopolamine 0.5 mg/kg ip alone (0.5% MC po) on days 1-5, in s): 12.30 ± 1.24 | time to locate in target quadrant in probe trials (effect in words) ([2]; scopolamine 0.5 mg/kg): reduced
